In patent publication EP0279757A1, “Kit for use as an agent for the selective destruction of transformed cells” (priority 1987, dated 1988):

How the values were obtained:
Assay type in all cases: cell-based
[1] = tested on: cellules épithéliales de foie de rat transformées (IAR 27 ou IAR 6-1) et non transformées (IAR 20); test: Co-culture of transformed and non-transformed cells: micro-injection, dye diffusion and killing after near-UV exposure
Text: On a utilisé aussi des cellules épithéliales de foie de rat transformées et non transformées. Puisqu'à l'heure actuelle, il n'existe pas de mé-thode d'induction in situ de foyer épithélial transformée par des cancé-rogènes, on a cocultivé articifiellement des cellules épithéliales de foie de rat transformées et non transformées, de sorte que les deux types de cellules puissent être en contact. Lorsque les cellules transformées (IAR 27 ou IAR 6-1) sont cultivées avec des cellules non transformées (IAR 20), la frontière entre les deux types de cellules est clairement visible à cause de la différence de leur aspect morphologique.

cellules transformées = test: Selective destruction of transformed cells by micro-injection into one target cell followed by activation at 400 nm; conditions: set of 100 transformed cells, activation at 400 nm for 5 to 10 minutes
Text: Pour être utilisée conformément à l'objectif visé, la susbtance (a) doit être acheminée par toute technique appropriée dans au moins l'une des cellules transformées à détruire, à partir de laquelle elle passe de manière spécifique dans les autres cellules transformées du même site, par l'intermédiaire des "gap junctions". La technique préférée actuellement est la micro-injection, bien connue de l'homme du métier et décrite en détail dans l'article de Cancer Res. cité plus haut.
Dans la pratique, il apparaît avantageux de micro-injecter la substance (a) ou des solutions salines (par exemple en milieu physiologique) de la substance (a), à raison d'un volume pouvant ne pas dépasser environ 10% par rapport au volume de la cellule-cible, par des micro-injections fractionnées et espacées entre elles, par exemple à des intervalles de 10 minutes, ou par une micro-injection en continu.
Il est préférable de respecter une attente entre la dernière micro-injection ou la fin de la micro-injection en continu et l'entrée en fonction du moyen pour l'activation de la susbtance toxique (a), afin que le passage de cette dernière dans l'ensemble des cellules transformées du site traité soit effectif. […]

[2] = tested on: cellules BALB/c 3T3 transfectées par pEJ-ras-H (cellules transformées); test: Killing of transformed cells by micro-injection followed by near-UV irradiation (400 nm); conditions: micro-injection into transformed cells, irradiation at a frequency close to UV; checked by Trepan blue staining or microscopy
Text: Cet exemple concerne la destruction de cellules transformées, par micro-injection de Lucifer Yellow CH, suivie d'une irradiation à 400 nm.
Pour la production de cellules transformées, on a utilisé des cellules BALB/c 3T3, ce système de transformation assurant la production in situ de cellules transformées sur une couche mono-cellulaire normale, et simule ainsi la cancérogenèse in vivo.
Des cellules BALB/c 3T3 ont été transfectées par un oncogène activé que l'on a isolé d'un carcinome de vessie humaire, le pEJ-ras-H; par cette opération, on a obtenu des cellules transformées. […] Lorsque de nombreuses cellules sont tuées dans un foyer transformé, le foyer entier se décolle du fond de la boîte de Pétri. L'élimination de cellules se vérifie habituellement par coloration au "Trepan blue" mais peut également être confirmée par observation attentive au microscope : ces cellules ne montrent pas de capacité de prolifération; un grand nombre d'entre elles sont décollées.

[3] = tested on: foyers transformés de cellules BALB/c 3T3; test: Stimulation of gap junction communication by an exogenous compound and its effect on selective elimination
Method: L'efficacité d'élimination a également été augmentée par stimulation de la communication des "gap junctions" par un composé exogène : après addition de dibutyryl c-AMP (1mM) dans une boîte de Pétri qui contient des foyers transformés de cellules BALB/c 3T3, on a observé que les communications intercellulaires sont stimulées dans les foyers transformés et dans la monocouche non transformée; cependant, les deux types de cellules ne communiquent pas entre eux.

Row | Compound | mort des cellules-cibles ([1]; after exposure to near-UV radiation) | diffusion du colorant ([1]; micro-injection in co-culture of IAR 27 or IAR 6-1 with IAR 20) | destruction de cellules transformées (cellules transformées) | élimination sélective des cellules transformées [2] | élimination sélective dans les cellules transformées ([3]; 1mM added to the Petri dish, elimination by Lucifer Yellow CH micro-injection and irradiation) | communications intercellulaires ([3]; 1mM added to the Petri dish, in transformed foci and in the non-transformed monolayer, the two cell types do not communicate with each other) | spécificité de communication intercellulaire ([3]; prolonged treatment, transformed phenotypes then began to disappear)
1 | Lucifer Yellow CH | la mort des cellules | diffusion sélective du colorant dans les cellules du même type | destruction sélective complète | on a pu les tuer | – | – | –
2 | CCCC(=O)Nc1ncnc2c1ncn2[C@@H]1O[C@@H]2COP(=O)(O)O[C@H]2[C@H]1OC(=O)CCC [dibutyryl c-AMP] | – | – | – | – | plus facilement | stimulées | suppression de la spécificité de communication
